Experimental data reported in patent publication US8008291B2 (Mimetica Pty Ltd, priority 2008, dated 2011).

Target: T1, human MC5R (hMC5R) (Homo sapiens, UniProt P33032)
T1 construct: purchased Perkin Elmer RBXMC5M400UA
Test: Human MC5R radioligand binding assay (membranes, [125I] NDP-MSH displacement)
Conditions: hMC5R binding; tested as trifluoroacetate or hydrochloride salts, or free bases; read-out: MC5R radioligand IC50
Summary of the method: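 Displacement of [125I]NDP-MSH (radioiodinated in house, HPLC-purified) from hMC5R membranes by test compound measured after 1 hr incubation at 37° C.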

T1 sequence (P33032 whole entry): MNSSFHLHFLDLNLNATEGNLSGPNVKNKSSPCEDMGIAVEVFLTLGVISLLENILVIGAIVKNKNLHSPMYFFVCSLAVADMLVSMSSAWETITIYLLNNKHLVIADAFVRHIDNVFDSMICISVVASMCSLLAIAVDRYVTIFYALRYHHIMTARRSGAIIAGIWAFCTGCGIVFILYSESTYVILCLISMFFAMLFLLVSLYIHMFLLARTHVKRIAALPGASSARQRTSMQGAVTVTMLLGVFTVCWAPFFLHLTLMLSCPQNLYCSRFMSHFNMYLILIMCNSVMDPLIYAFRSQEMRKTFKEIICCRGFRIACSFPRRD

Row | SMILES | IC50
1 | O=C(NC[C@@H]1CCN(CC(c2ccccc2)c2ccccc2)C(=O)[C@H](CCCN2CCC2)N1)c1ccc2ccccc2c1 [Compound 262, N-(((3S,5S)-3-(3-(azetidin-1-yl)propyl)-1-(2,2-diphenylethyl)-2-oxo-1,4-diazepan-5-yl)methyl)-2-naphthamide] | < 0.1 µM
2 | N=C(N)NCCC[C@@H]1N[C@H](CNC(=O)c2cnc3ccccc3c2)CCN(CC2CCCCC2)C1=O [Compound 482, N-(((3S,5S)-1-(cyclohexylmethyl)-3-(3-guanidinopropyl)-2-oxo-1,4-diazepan-5-yl)methyl)quinoline-3-carboxamide] | < 1 µM
3 | O=C(/C=C/c1ccc(Cl)cc1)NC[C@@H]1CCN(CC(c2ccccc2)c2ccccc2)C(=O)[C@H](CCN2CCOCC2)N1 [Compound 403, (E)-3-(4-chlorophenyl)-N-(((3S,5S)-1-(2,2-diphenylethyl)-3-(2-morpholinoethyl)-2-oxo-1,4-diazepan-5-yl)methyl)acrylamide] | < 0.1 µM
4 | O=C(NC[C@@H]1CCN(CC(c2ccccc2)c2ccccc2)C(=O)[C@H](CCCN2CCCC2)N1)c1ccc2ccccc2c1 [Compound 261, N-(((3S,5S)-1-(2,2-diphenylethyl)-2-oxo-3-(3-(pyrrolidin-1-yl)propyl)-1,4-diazepan-5-yl)methyl)-2-naphthamide] | < 0.1 µM
5 | O=C(/C=C/c1ccc(Cl)cc1)NC[C@@H]1CCN(CC(c2ccccc2)c2ccccc2)C(=O)[C@H](CNC(=O)c2ccccn2)N1 [Compound 393, N-(((2S,7S)-7-(((E)-3-(4-chlorophenyl)acrylamido)methyl)-4-(2,2-diphenylethyl)-3-oxo-1,4-diazepan-2-yl)methyl)picolinamide] | < 10 µM
6 | CC[C@H](CN1CC[C@@H](CNC(=O)c2ccc3cc(OC)ccc3c2)N[C@@H](CCN2CCCCC2)C1=O)c1ccccc1 [Compound 537, 6-methoxy-N-(((3S,5S)-2-oxo-1-((S)-2-phenylbutyl)-3-(2-(piperidin-1-yl)ethyl)-1,4-diazepan-5-yl)methyl)-2-naphthamide] | < 0.1 µM
7 | CCC(C)(CC)CN1CC[C@@H](CNC(=O)c2ccc(Cl)c(Cl)c2)N[C@@H](CCN)C1=O [Compound 520, N-(((3S,5S)-3-(2-aminoethyl)-1-(2-ethyl-2-methylbutyl)-2-oxo-1,4-diazepan-5-yl)methyl)-3,4-dichlorobenzamide] | < 10 µM
8 | CC[C@H](CN1CC[C@@H](CNC(=O)c2ccc(Cl)c(Cl)c2)N[C@@H](CCN2CCCC2)C1=O)c1ccccc1 [Compound 411, 3,4-dichloro-N-(((3S,5S)-2-oxo-1-((S)-2-phenylbutyl)-3-(2-(pyrrolidin-1-yl)ethyl)-1,4-diazepan-5-yl)methyl)benzamide] | < 0.1 µM
9 | CCOC(=O)C(CN1CC[C@@H](CNC(=O)c2ccc3ccccc3c2)N[C@@H](CCCNC(=N)N)C1=O)c1ccccc1 (stereo partly drawn) [Compound 296, ethyl 3-((3S,5S)-5-((2-naphthamido)methyl)-3-(3-guanidinopropyl)-2-oxo-1,4-diazepan-1-yl)-2-phenylpropanoate] | < 1 µM
10 | O=C(/C=C/c1ccc(F)cc1F)NC[C@@H]1CCN(CC(c2ccccc2)c2ccccc2)C(=O)[C@H](CCN2CCCCC2)N1 [Compound 400, (E)-3-(2,4-difluorophenyl)-N-(((3S,5S)-1-(2,2-diphenylethyl)-2-oxo-3-(2-(piperidin-1-yl)ethyl)-1,4-diazepan-5-yl)methyl)acrylamide] | < 0.1 µM
11 | CC[C@H](CN1CC[C@@H](CNC(=O)c2cc(-c3ccc(Cl)cc3)on2)N[C@@H](CCN2CCCCC2)C1=O)c1ccccc1 [Compound 533, 5-(4-chlorophenyl)-N-(((3S,5S)-2-oxo-1-((S)-2-phenylbutyl)-3-(2-(piperidin-1-yl)ethyl)-1,4-diazepan-5-yl)methyl)isoxazole-3-carboxamide] | < 0.01 µM
12 | CC[C@H](CN1CC[C@@H](CNC(=O)c2ccc3cc(Cl)ccc3c2)N[C@@H](CCCNC(N)=O)C1=O)c1ccccc1 [Compound 490, 6-chloro-N-(((3S,5S)-2-oxo-1-((S)-2-phenylbutyl)-3-(3-ureidopropyl)-1,4-diazepan-5-yl)methyl)-2-naphthamide] | < 1 µM
13 | N=C(N)NCCC[C@@H]1N[C@H](CNC(=O)c2ccc3ccccc3c2)CCN(CCc2ccc3ccccc3c2)C1=O [Compound 264, N-(((3S,5S)-3-(3-guanidinopropyl)-1-(2-(naphthalen-2-yl)ethyl)-2-oxo-1,4-diazepan-5-yl)methyl)-2-naphthamide] | < 10 µM
14 | CCC(CN1CC[C@@H](CNC(=O)c2ccc3ccccc3c2)N[C@@H](CCCN2CCCCC2)C1=O)c1ccccc1 (stereo partly drawn) [Compound 342, N-(((3S,5S)-2-oxo-1-(2-phenylbutyl)-3-(3-(piperidin-1-yl)propyl)-1,4-diazepan-5-yl)methyl)-2-naphthamide] | < 0.1 µM
15 | N=C(N)NCCC[C@@H]1N[C@H](CNC(=O)/C=C/c2ccccc2O)CCN(CC(c2ccccc2)c2ccccc2)C1=O [Compound 189, (E)-N-(((3S,5S)-1-(2,2-diphenylethyl)-3-(3-guanidinopropyl)-2-oxo-1,4-diazepan-5-yl)methyl)-3-(2-hydroxyphenyl)acrylamide] | < 1 µM
16 | CC(=O)N[C@@H](Cc1ccc2ccccc2c1)[C@@H]1CCN(CC(c2ccccc2)c2ccccc2)C(=O)[C@H](CCCNC(=N)N)N1 [Compound 79, N-((S)-1-((3S,5S)-1-(2,2-diphenylethyl)-3-(3-guanidinopropyl)-2-oxo-1,4-diazepan-5-yl)-2-(naphthalen-2-yl)ethyl)acetamide] | < 10 µM
17 | CC[C@H](CN1CC[C@@H](CNC(=O)/C=C/c2ccc(OC(F)(F)F)c(F)c2)N[C@@H](CCN2CCCCC2)C1=O)c1ccccc1 [Compound 539, (E)-3-(3-fluoro-4-(trifluoromethoxy)phenyl)-N-(((3S,5S)-2-oxo-1-((S)-2-phenylbutyl)-3-(2-(piperidin-1-yl)ethyl)-1,4-diazepan-5-yl)methyl)acrylamide] | < 0.01 µM
18 | C[C@@H](N1CC[C@@H](CNC(=O)c2ccc3ccccc3c2)N[C@@H](CCCNC(=N)N)C1=O)C(F)(c1ccccc1)c1ccccc1 [Compound 206, N-(((3S,5S)-1-((R)-1-fluoro-11-diphenylpropan-2-yl)-3-(3-guanidinopropyl)-2-oxo-1,4-diazepan-5-yl)methyl)-2-naphthamide] | < 1 µM
19 | NCC[C@@H]1N[C@H](CNC(=O)c2ccc3ccccc3c2)CCN(CC(c2ccccc2)c2ccccc2)C1=O [Compound 260, N-(((3S,5S)-3-(2-aminoethyl)-1-(2,2-diphenylethyl)-2-oxo-1,4-diazepan-5-yl)methyl)-2-naphthamide] | < 1 µM

Continued, values first:

Row | IC50 | SMILES
20 | < 10 µM | O=C(/C=C/c1ccc(Cl)cc1)NC[C@@H]1CCN(CC(c2ccccc2)c2ccccc2)C(=O)[C@H](CNC(=O)C2CCCCC2)N1 [Compound 402, N-(((2S,7S)-7-(((E)-3-(4-chlorophenyl)acrylamido)methyl)-4-(2,2-diphenylethyl)-3-oxo-1,4-diazepan-2-yl)methyl)cyclohexanecarboxamide]
21 | < 0.01 µM | CC[C@H](CN1CC[C@@H](CNC(=O)c2ccc(Cl)c(Cl)c2)N[C@@H](CCN(C)Cc2ccccc2)C1=O)c1ccccc1 [Compound 442, N-(((3S,5S)-3-(2-(benzyl(methyl)amino)ethyl)-2-oxo-1-((S)-2-phenylbutyl)-1,4-diazepan-5-yl)methyl)-3,4-dichlorobenzamide]
22 | < 1 µM | N=C(N)NCCC[C@@H]1N[C@H](CNC(=O)c2ccc3ccccc3c2)CCN(CC(OCc2ccccc2)c2ccccc2)C1=O (stereo partly drawn) [Compound 291, N-(((3S,5S)-1-(2-(benzyloxy)-2-phenylethyl)-3-(3-guanidinopropyl)-2-oxo-1,4-diazepan-5-yl)methyl)-2-naphthamide]
23 | < 0.1 µM | CC[C@H](CN1CC[C@@H](CNC(=O)c2ccc3ccccc3c2)N[C@@H](CCN2CCCCC2)C1=O)c1ccccc1 [Compound 38, N-(((3S,5S)-2-oxo-1-((S)-2-phenylbutyl)-3-(2-(piperidin-1-yl)ethyl)-1,4-diazepan-5-yl)methyl)-2-naphthamide]
24 | < 0.1 µM | CC[C@@H](CN1CC[C@@H](CNC(=O)/C=C/c2ccc(Cl)cc2)N[C@@H](CCN2CCCCC2)C1=O)c1ccccc1 [Compound 364, (E)-3-(4-chlorophenyl)-N-(((3S,5S)-2-oxo-1-((R)-2-phenylbutyl)-3-(2-(piperidin-1-yl)ethyl)-1,4-diazepan-5-yl)methyl)acrylamide]
25 | < 0.1 µM | CC[C@H](CN1CC[C@@H](CNC(=O)c2ccc(Cl)c(Cl)c2)N[C@@H](CCN2CCC(F)(F)CC2)C1=O)c1ccccc1 [Compound 483, 3,4-dichloro-N-(((3S,5S)-3-(2-(4,4-difluoropiperidin-1-yl)ethyl)-2-oxo-1-((S)-2-phenylbutyl)-1,4-diazepan-5-yl)methyl)benzamide]
26 | < 1 µM | N=C(N)NCCC[C@@H]1N[C@H](CNC(=O)c2ccc(-c3ccccc3)cc2)CCN(CC2CCCCC2)C1=O [Compound 480, N-(((3S,5S)-1-(cyclohexylmethyl)-3-(3-guanidinopropyl)-2-oxo-1,4-diazepan-5-yl)methyl)biphenyl-4-carboxamide]
27 | < 0.1 µM | CC[C@H](CN1CC[C@@H](CNC(=O)c2ccc3cc(Cl)ccc3c2)N[C@@H](CCN2CCCCCC2)C1=O)c1ccccc1 [Compound 493, N-(((3S,5S)-3-(2-(azepan-1-yl)ethyl)-2-oxo-1-((S)-2-phenylbutyl)-1,4-diazepan-5-yl)methyl)-6-chloro-2-naphthamide]
28 | < 1 µM | CCC(CN1CC[C@@H](CNC(=O)c2ccc(Cl)c(Cl)c2)N[C@@H](CCN2CCCCC2)C1=O)C1CC1 (stereo partly drawn) [Compound 486, 3,4-dichloro-N-(((3S,5S)-1-(2-cyclopropylbutyl)-2-oxo-3-(2-(piperidin-1-yl)ethyl)-1,4-diazepan-5-yl)methyl)benzamide]
29 | < 0.01 µM | O=C(NC[C@@H]1CCN(Cc2cc(Cl)cc(Cl)c2)C(=O)[C@H](CCN2CCCCC2)N1)c1ccc(Cl)cc1Cl [Compound 528, 2,4-dichloro-N-(((3S,5S)-1-(3,5-dichlorobenzyl)-2-oxo-3-(2-(piperidin-1-yl)ethyl)-1,4-diazepan-5-yl)methyl)benzamide]
